Assay results reported in patent US12343319B2, “Compositions and methods for treatment of diseases and disorders” (Atai Therapeutics Inc., priority 2023, dated 2025).

How the values were obtained:
Male Sprague-Dawley rats [1] = experiment: Rat forced swim test, immobility frequency; format: in vivo; conditions: 10 mg/kg, i.p., once 24 hours prior to the swim test
Procedure: Male Sprague-Dawley rats were placed individually in clear acrylic swim chambers (40 cm height×20.3 cm diameter) filled to 16 cm for a 15-minute pre-swim session on day 1 and filled to 30 cm for a 5-minute swim test session 24 hours later. Rats (n=10 per treatment group) were administered compound 2-1 (3, 10, 30 mg/kg, i.p., 1 mL/kg, based on weight of the free base) or vehicle (40% (w/v) 2-HPBCD in water, i.p.) at 23.5, 16 and 0.5 hours prior to the swim test. The rapid-acting antidepressant, ketamine (10 mg/kg, i.p.), was included in the study as a positive control condition and injected once 24 hours prior to the swim test.

Male WKY rats = experiment: Sleep-wake behavior, EEG power, body temperature and locomotor activity in WKY rats; format: in vivo, rat; conditions: over 6 hours post dose, WKY rats, IP
Procedure: Male WKY rats (n=7, 289-388 g at the start of dosing) were housed in groups of 2-3 animals per cage with standard housing conditions. For implantation of the EEG electrodes and radio transmitter, the animals were anesthetized with isoflurane (2-5% in oxygen at 11/min) throughout the procedure. The scalp, neck and right flank were cleared of hair using clippers and cleaned using diluted Hibitane (chlorhexidine, 50% (v/v) in water). A non-steroidal anti-inflammatory agent was administered (carprofen 5 mg/kg, s.c.) and the animals placed on a homeothermic blanket (37° C.) with the head fixed in a stereotaxic frame. Incisions were made in the scalp and neck, as well as in the right flank. Blunt dissection of the abdominal muscle was then made to gain access to the peritoneal cavity. A radio transmitter (HD-S02, Data Sciences International) was implanted in the peritoneal cavity and secured to the muscle wall with non-absorbable sutures. The wires of the transmitter were passed using a 19G needle through the muscle wall and then sub-dermally to the scalp to act as Electroencephalogram (EEG)/Electromyograph (EMG) electrodes. The scalp was cleared of connective tissue and two craniotomies were made with a trepanning drill (fronto-parietal coordinates; Bregma+2 mm anterior, midline+1.0 mm lateral and Lambda 0 mm, +1.5 mm lateral). The positive EEG electrode was attached to the anterior craniotomy and the negative EEG electrode to the posterior craniotomy. Both electrodes were secured in place using a suitable adhesive agent (cyanoacrylate gel, RS components). A second set of electrodes were sutured into the nuchal muscle to act as EMG electrodes. All incisions were closed using absorbable suture.
All animals were allowed to recover in a warm environment and given 5 ml of saline subcutaneously (s.c.). Animals were kept singly in the cage until the next day, then pair housed for the duration of post-surgical recovery (minimum 7 days). During the recovery period, the rats received 5 days of standard post-operative care with no further experimental procedures until the pre-operative body weight was regained. The animals were maintained on a 12/12 hour light dark cycle (08:00 am lights on) after the surgery. Home cages and post-operative cages contained bedding and nesting material, along with environmental enrichment such as wooden chew-sticks and plastic tunnels.
On test days, ˜60 minutes after lights-on, animals were placed in recording boxes similar to their home-cages, except that environmental enrichment was restricted to a large bundle of nesting and bedding material, to avoid interference with the telemeter signals. Then, data acquisition was initiated for confirmation of signal quality. EEG and EMG data were acquired using intraperitoneal HD-S02 transmitters (DSI, New Brighton, MN) and Spike2 software (CED). EEG and EMG signals were digitized 500 samples/second, amplified 1000× and bandpass filtered at 0.5-100 Hertz (Hz). After 60 minutes of habituation, each animal was briefly removed from its box and dosed via the intraperitoneal (i.p.) route in a volume of 2 mL/kg. Test conditions included saline vehicle, psilocybin (10 mg/kg) positive control, compound 2-1 at 3, 10 and 30 mg/kg and compound 2-2 at 10, 17 and 30 mg/kg. Doses were based on the molecular weight of the free bases. compound 2-1 and compound 2-2 dosing solutions were prepared in 40% (w/v) hydroxypropyl-beta-cyclodextrin. After dosing, animals were immediately put back into the recording boxes, the experimenter left the room, and recordings continued uninterrupted for 23 hours. At the end of the recording session, the transmitters were turned off and the animals were returned to their home cages. All animals received all treatment conditions in a pseudo randomized cross-over fashion with a minimum washout period of 7 days between doses.
All data was aligned to zero (the time of dosing), with epochs defined as non-overlapping 10-second time segments. […]

[2] = biological target: T1, 5-HT2A receptors in the mouse frontal cortex (Mus musculus, UniProt P35363); experiment: Ex vivo 5-HT2A receptor occupancy ([3H]cimbi-36) in mouse frontal cortex; conditions: mouse, 3 mg/kg IP, 15 minutes post dosing
T1 construct: Left frontal cortices from each animal were homogenized individually; from tissue

Male Sprague-Dawley rats [3] = experiment: 5-HT2A/2C/1A-mediated behaviors, locomotor activity and body temperature in rats; format: in vivo, rat; conditions: 1 mg/kg SC
Procedure: Forty (40) male Sprague-Dawley rats were used as test subjects in this study. Animals were dosed with vehicle (IP), one of 3 doses of compound 2-2 (3 mg/kg, 10 mg/kg, 30 mg/kg IP) or psilocybin (1 mg/kg SC) and, following the appropriate pre-treatment time, were placed in locomotor activity boxes and continuously monitored for a 1 hr period with data collected into 10-minute time bins. Animals were visually assed for overt behavioral signs, including biomarkers for 5-HT2A receptor target engagement (i.e. wet dog shakes, back muscle contractions and stereotypic behaviors), 5-HT2C receptor activation (yawning, penile grooming), and 5-HT1A behaviors (forepaw treading, hindlimb abduction). Additional behavioral and somatic signs characteristic of 5-HT syndrome (i.e. tremor, salivation, flat body posture) also were measured. Core body temperature change was determined at 0 hr (pre-dose), 1 hr, and 2 hr. Simultaneously, the spontaneous locomotor activity of the rats was measured using automated Med Associates activity test chambers. Activity data collected included total distance travelled, rearing counts, and ambulatory episodes. LMA was measured for a total of 2 hours (i.e. the first hour to include visual assessments of behavioral signs, and the second hour the animals will not be assessed for behavioral signs) with data collected into 10 minute time bins. The tracking arena measured 17″ W×17″ L×12″ H, sensor bars were secured 1″ above the floor to track distance travelled, and a second set of sensor bars were placed ˜5″ above the floor to measure vertical movement and rearing activity. The parameters set on the tracking software were as follows: resolution −50 ms, box size −4 beams, resting delay −500 ms, and ambulatory trigger −3.
Table 14 outlines receptor activity and related behavioral and/or physiological measures.

[4] = tested on: primary cortical rat neurons; experiment: Synaptogenesis assay in primary cortical rat neurons; format: cell-based
Procedure: Pregnant rats for this study were purchased from a commercial breeder. Primary cortical neurons from E17/E18 rat pups were isolated and seeded in 96-well plates. Cells were treated with compound 2-2, FGF (Reference item) or vehicle. After incubation with the respective treatment, cortical neurons were stained for synapsin and tubulin using immunofluorescence.
Stained cells were imaged with the Cytation 5 Multimode reader. From each well, 9 images were taken at 10× magnification. Digital images from cortical neurons were analyzed for the following parameter using a software-supported automatic quantification method: Number of synapsin positive objects. Analysis was performed using Gen5 software. The experiment was run in n=10 technical replicates per condition. Vehicle control and FGF were included on each plate totaling n=20 technical replicates.
Primary cortical neurons were prepared from timed pregnant Spargue Dawley rats at E17/E18. Animals were sacrificed (see section 3.3.1) and embryos were dissected in Calcium and Magnesium free Hanks Balanced Salt Solution (CMF-HBSS) containing 15 mM HEPES and 10 mM NaHCO3, pH 7.2. Embryos were decapitated, skin and skull gently removed and hemispheres were separated. After removing meninges and brain stem, the cortices were isolated, chopped with a sterile razor blade in Chop solution (Hibernate-E without Calcium containing 2% B-27) and digested in 2 mg/mL papain (Worthington) dissolved in Hibernate-E without Calcium for 30 minutes (±5 min) at 30° C. The cortices of the embryos from the two rats were pooled and processed together.
Cortices were triturated for 10-15 times with a fire-polished silanized Pasteur pipette in Hibernate-E without Calcium containing 2% B-27, 0.01% DNaseI, 1 mg/mL BSA, and 1 mg/mL Ovomucoid Inhibitor. Undispersed pieces were allowed to settle by gravity for 3 min and the supernatant was centrifuged for 3 min at 228 g. […]
Cells were counted in a hemacytometer and seeded in nutrition medium on poly-D-lysine pre-coated 96-well plates at a density of 1.5×10^4 cells/well. […]

5-HT2A receptor [5] = biological target: T2, 5-HT2A receptor (Mus musculus, UniProt P35363); experiment: 5-HT2A receptor binding in mouse frontal cortical tissue; conditions: for Ki: Mean (Mouse), mouse frontal cortical tissue
5-HT2A receptor [6] = biological target: T2, 5-HT2A receptor; design: endogenous in cells; host or cells: adult male C57BL/6J mice, in vivo; conditions: i.p., same assay, Klein et al., 2021; cited from earlier work

T2 sequence (P35363 whole entry): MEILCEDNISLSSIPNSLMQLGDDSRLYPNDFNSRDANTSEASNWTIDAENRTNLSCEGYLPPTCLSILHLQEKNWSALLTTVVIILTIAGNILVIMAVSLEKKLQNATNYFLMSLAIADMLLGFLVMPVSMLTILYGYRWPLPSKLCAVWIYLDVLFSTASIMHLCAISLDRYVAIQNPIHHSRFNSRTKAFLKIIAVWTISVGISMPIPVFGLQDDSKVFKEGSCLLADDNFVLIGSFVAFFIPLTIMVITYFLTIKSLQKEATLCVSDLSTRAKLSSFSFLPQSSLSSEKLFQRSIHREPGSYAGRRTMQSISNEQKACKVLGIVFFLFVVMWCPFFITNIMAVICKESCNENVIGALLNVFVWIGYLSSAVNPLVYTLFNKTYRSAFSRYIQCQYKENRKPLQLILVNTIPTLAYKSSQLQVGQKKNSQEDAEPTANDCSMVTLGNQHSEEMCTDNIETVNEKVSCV
T1 sequence (P35363 whole entry): as above

For `CNC1(c2ccccc2Cl)CCCCC1=O` (stereo not drawn) [Ketamine, ketamine, reference compound], the “immobility compared to vehicle” value (Male Sprague-Dawley rats [1]) was “significantly decreased”.
For `CN(C)CCc1c[nH]c2cccc(OP(=O)(O)O)c12` [Psilocybin, psilocybin, reference compound], the body temperature (Male WKY rats) was “↓(for 6 h)”, the receptor occupancy at 3 mg/kg ([2]; read-out: % Receptor Occupancy (RO)) was 19% and the remaining activity at 3 mg/kg ([2]; read-out: % of Control Binding) was 81%. The “distance travelled during the first 20 minutes of the 2 hour test” value (Male Sprague-Dawley rats [3]) was “decreased” and the “total locomotor activity measures” value (Male Sprague-Dawley rats [3]) was “did not affect”.
For `CN(C)CCc1c[nH]c2ccccc12` [N,N-DMT], the “synaptogenesis compared to VC (synapsin positive objects normalized to tubulin III area)” value ([4]; 1 μM (highest concentration), DIV1-DIV10) was “significant increase” and the “synaptogenesis compared to VC (synapsin positive objects normalized to tubulin III area)” value ([4]; lower concentrations (below 1 μM)) was “no significance”.
Compound `CN(C)CCc1c[nH]c2cccc(O)c12` [Psilocin, psilocin] has an IC50 (5-HT2A receptor [5]) of 99 nM, a Ki (5-HT2A receptor [5]; Ki) of 45.1 nM and a Ki (5-HT2A receptor [5]; pKi) of 45.7 nM. The “HTR ED50” value (5-HT2A receptor [6]) was 0.17 mg/kg.
